We go through two molecules from paper PMC6261253 (Nature, 2018).

One data set has as its target T1, DHX36-AAA (Bos taurus, UniProt Q05B79, K192A/K193A/K194A).
T1 sequence (Q05B79 55-1010 K192A/K193A/K194A): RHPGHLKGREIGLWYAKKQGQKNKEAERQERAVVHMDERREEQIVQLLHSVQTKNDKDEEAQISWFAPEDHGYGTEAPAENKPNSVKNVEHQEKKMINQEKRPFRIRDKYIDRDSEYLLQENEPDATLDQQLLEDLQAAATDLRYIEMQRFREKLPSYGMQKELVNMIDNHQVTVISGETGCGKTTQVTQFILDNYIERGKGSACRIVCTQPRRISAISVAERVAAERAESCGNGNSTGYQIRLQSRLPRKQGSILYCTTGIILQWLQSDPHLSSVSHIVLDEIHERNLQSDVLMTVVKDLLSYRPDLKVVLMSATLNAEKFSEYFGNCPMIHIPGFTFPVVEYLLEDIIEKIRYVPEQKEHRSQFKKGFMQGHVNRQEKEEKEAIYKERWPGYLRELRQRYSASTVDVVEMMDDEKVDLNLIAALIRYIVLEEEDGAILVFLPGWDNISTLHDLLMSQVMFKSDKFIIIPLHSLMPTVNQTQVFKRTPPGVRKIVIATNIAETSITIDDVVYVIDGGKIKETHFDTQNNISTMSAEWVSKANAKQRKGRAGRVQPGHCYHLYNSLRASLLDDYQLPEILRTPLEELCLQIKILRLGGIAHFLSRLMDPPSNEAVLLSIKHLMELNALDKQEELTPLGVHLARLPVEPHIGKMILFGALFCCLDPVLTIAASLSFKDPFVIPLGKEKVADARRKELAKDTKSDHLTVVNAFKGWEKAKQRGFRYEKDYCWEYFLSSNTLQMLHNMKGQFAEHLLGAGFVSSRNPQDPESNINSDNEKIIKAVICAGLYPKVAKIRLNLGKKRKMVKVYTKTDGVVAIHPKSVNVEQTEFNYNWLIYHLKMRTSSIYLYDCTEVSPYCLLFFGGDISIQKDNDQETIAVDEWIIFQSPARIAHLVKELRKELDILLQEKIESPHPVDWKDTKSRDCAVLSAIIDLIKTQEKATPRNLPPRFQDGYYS
Nature of the data set: single-molecule FRET, helicase dissociation from G-quadruplex DNA. The format is biochemical. Particulars: ATP added to DHX36-AAA bound to c-Myc G-quadruplex DNA with 3' T9 tail.

Data set [1] concerns the target T2, DHX36-DSM (crystallization construct) (Bos taurus, UniProt Q05B79 55-1010, E435Y;E436Y;K437Y;K752A;D753A;K755A;del1-54;del111-159).
T2 sequence: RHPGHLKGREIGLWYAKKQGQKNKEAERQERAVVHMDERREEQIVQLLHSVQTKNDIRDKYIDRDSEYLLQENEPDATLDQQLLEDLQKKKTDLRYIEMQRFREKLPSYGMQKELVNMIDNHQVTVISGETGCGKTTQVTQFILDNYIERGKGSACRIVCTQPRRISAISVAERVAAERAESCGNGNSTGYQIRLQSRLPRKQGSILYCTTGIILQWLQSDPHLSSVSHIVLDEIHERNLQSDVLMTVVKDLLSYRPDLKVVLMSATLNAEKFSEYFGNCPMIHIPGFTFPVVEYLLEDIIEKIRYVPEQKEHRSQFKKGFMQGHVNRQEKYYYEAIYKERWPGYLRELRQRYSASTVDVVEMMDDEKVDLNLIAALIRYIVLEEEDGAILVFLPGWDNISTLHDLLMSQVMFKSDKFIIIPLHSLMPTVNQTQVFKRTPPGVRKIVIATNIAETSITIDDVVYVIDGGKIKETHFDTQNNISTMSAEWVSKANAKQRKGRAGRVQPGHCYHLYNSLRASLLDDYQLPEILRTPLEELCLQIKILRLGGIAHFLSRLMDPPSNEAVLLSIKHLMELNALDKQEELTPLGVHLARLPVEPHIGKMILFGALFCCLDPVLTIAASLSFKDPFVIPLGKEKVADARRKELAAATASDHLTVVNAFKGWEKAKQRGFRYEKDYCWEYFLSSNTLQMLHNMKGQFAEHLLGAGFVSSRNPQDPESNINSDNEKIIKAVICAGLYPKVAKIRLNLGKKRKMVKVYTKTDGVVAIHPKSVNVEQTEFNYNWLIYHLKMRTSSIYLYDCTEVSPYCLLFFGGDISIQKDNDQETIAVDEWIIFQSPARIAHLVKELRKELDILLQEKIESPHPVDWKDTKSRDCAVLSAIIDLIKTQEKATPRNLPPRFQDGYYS
Nature of the data set: X-ray crystallography.

On to `Nc1ncnc2c1ncn2[C@@H]1O[C@H](COP(=O)(O)OP(=O)(O)OP(=O)(O)O)[C@@H](O)[C@H]1O` [ATP], for which the “single-molecule FRET, helicase dissociation from G-quadruplex DNA” value on DHX36-AAA is listed as “Addition of ATP (red arrow) while DHX36-AAA is displaying repetitive unfolding activity”.
Turning to AGGGTGGGTAGGGTGGGTTTTTTT (structured_DNA) [DNAMyc], the binding result in data set [1] is reported as “binds”.
